Measured values reported in patent publication US20100317607A1, “USE OF COMPOUNDS FOR PREPARING ANTI-TUBERCULOSIS AGENTS” (INFECTIOUS DISEASE RESEARCH INSTITUTE, priority 2007, published 2010).
Converted amounts (≈) assume the structure as drawn. Where a name gives a salt, the structure may show the parent alone.

System: H37Rv strain of M. tuberculosis
Assay: Alamar Blue Susceptibility Test (MABA)
Type: cell-based
Details: Mycobacterium tuberculosis; H37Rv strain of M. tuberculosis; Alamar Blue; read-out: MABA (TB growth inhibition, colourimetric assay)

SMILES	MIC [µM]
FC1(F)CCN(c2nc(NCc3ccc(Cl)cc3)nc3ccccc23)CC1 [Compound 146, N-(4-Chlorobenzyl)-4-(4,4-difluoropiperidin-1-yl)quinazolin-2-amine hydrochloride]	10 to 50
c1ccc(CNc2nc(N3CCNCC3)nc3ccccc23)cc1 [Compound 51, N-Benzyl-2-(piperazin-1-yl)quinazolin-4-amine]	50 to 128 (≈ 16 to 40.9 µg/mL)
c1ccc2c(NCc3ccsc3)nc(N3CCCCC3)nc2c1 [Compound 191, 2-(Piperidin-1-yl)-N-(thiophen-3-ylmethyl)quinazolin-4-amine]	10 to 50 (≈ 3.24 to 16.2 µg/mL)
COC(=O)[C@@H]1CCCN1c1nc(NCc2ccc(F)cc2)c2ccccc2n1 [Compound 200, (S)-Methyl 1-(4-(4-fluorobenzylamino)quinazolin-2-yl)pyrrolidine-2-carboxylate]	50 to 128 (≈ 19 to 48.7 µg/mL)
CN(Cc1ccccc1)c1nc(NCc2ccccc2)c2ccccc2n1 [Compound 29, N^2,N^4-Dibenzyl-N^2-methylquinazoline-2,4-diamine]	10 to 50 (≈ 3.54 to 17.7 µg/mL)
COC[C@@H]1CCCN1c1nc(NCc2ccccc2)c2ccccc2n1 [Compound 178, (S)—N-Benzyl-2-(2-(methoxymethyl)pyrrolidin-1-yl)quinazolin-4-amine]	50 to 128 (≈ 17.4 to 44.6 µg/mL)
Fc1ccc(CNc2nc(N3CCC(F)(F)CC3)nc3ccccc23)cc1 [Compound 137, 2-(4,4-Difluoropiperidin-1-yl)-N-(4-fluorobenzyl)quinazolin-4-amine]	10 to 50 (≈ 3.72 to 18.6 µg/mL)
Fc1ccc(CNc2nc(NC3(c4ccc(F)cc4)CC3)c3ccccc3n2)cc1 [Compound 154, N^2-(4-Fluorobenzyl)-N^4-(1-(4-fluorophenyl)cyclopropyl)quinazoline-2,4-diamine]	< 10
Fc1ccc(CNc2nc(N3CCc4ccc(Br)cc4C3)nc3ccccc23)cc1 [Compound 193, 2-(7-Bromo-3,4-dihydroisoquinolin-2(1H)-yl)-N-(4-fluorobenzyl)quinazolin-4-amine]	10 to 50 (≈ 4.63 to 23.2 µg/mL)
CC(C)(C)OC(=O)N1CCc2c(nc(N3CCCCC3)nc2NCc2ccc(F)cc2)C1 [Compound 184, tert-Butyl 4-(4-fluorobenzylamino)-2-(piperidin-1-yl)-5,6-dihydropyrido[3,4-d]pyrimidine-7(8H)-carboxylate]	50 to 128 (≈ 22.1 to 56.5 µg/mL)
Clc1ccc(CNc2nc(N3CCCC3)nc3ccccc23)cc1 [Compound 75, N-(4-Chlorobenzyl)-2-(pyrrolidin-1-yl)quinazolin-4-amine]	10 to 50 (≈ 3.39 to 16.9 µg/mL)
Fc1ccc(CNc2nc(N3Cc4ccccc4C3)nc3ccccc23)cc1 [Compound 179, N-(4-Fluorobenzyl)-2-(isoindolin-2-yl)quinazolin-4-amine hydrochloride]	< 10
O=C1CCN(c2nc(NCc3ccccc3)c3ccccc3n2)CC1 [Compound 139, 1-(4-(Benzylamino)quinazolin-2-yl)piperidin-4-one]	< 10
c1cncc(CNc2nc(N3CCCCC3)nc3ccccc23)c1 [Compound 47, 2-(Piperidin-1-yl)-N-(pyridin-3-ylmethyl)quinazolin-4-amine]	50 to 128 (≈ 16 to 40.9 µg/mL)
Clc1cccc2nc(N3CCCCC3)nc(NCc3ccccc3)c12 [Compound 107, N-Benzyl-5-chloro-2-(piperidin-1-yl)quinazolin-4-amine]	10 to 50 (≈ 3.53 to 17.6 µg/mL)
Cc1ccc(CNc2nc(NCc3ccccc3)c3ccccc3n2)cc1 [Compound 28, N^4-Benzyl-N^2-(4-methylbenzyl)quinazoline-2,4-diamine]	10 to 50 (≈ 3.54 to 17.7 µg/mL)
COc1cccc(CNc2nc(N3CCCCC3)nc3ccccc23)c1 [Compound 82, N-(3-Methoxybenzyl)-2-(piperidin-1-yl)quinazolin-4-amine hydrochloride]	10 to 50
Oc1ccc(CNc2nc(NCc3ccc(F)cc3)nc3ccccc23)cc1 [Compound 165, 4-((2-(4-Fluorobenzylamino)quinazolin-4-ylamino)methyl)phenol]	10 to 50 (≈ 3.74 to 18.7 µg/mL)
O=C(N1CCCC1)N1CCN(c2nc(NCc3ccc(F)cc3)c3ccccc3n2)CC1 [Compound 205, (4-(4-(4-Fluorobenzylamino)quinazolin-2-yl)piperazin-1-yl)(pyrrolidin-1-yl)methanone hydrochloride]	50 to 128
